From patent publication US4232121A, “Process for selecting methine dyes which inhibit cell growth” (Eastman Kodak Company, priority 1978, dated 1980)
Like-named read-outs stand apart in the source and are kept apart here.

Key:
[1] = test system: Bacillus pumilus strain K-1; experiment: Inhibition of bacterial growth, filter paper on inoculated agar plates; format: cell-based
Description: Nutrient broth was prepared by mixing 8 grams of BACTO dehydrated nutrient broth per liter of distilled water. […] Samples of the nutrient broth were then inoculated with Bacillus pumilus strain K-1 culture. […]
Nutrient agar was prepared by mixing 23 grams of BACTO nutrient agar per liter of distilled water. The nutrient agar was sterilized in the same way as the nutrient broth. After it has cooled to about 45° C. 250 ml of the nutrient agar solution was aeseptically inoculated with 5 ml of the Bacillus pumilus, K-1 culture prepared in (A), above. Plates of the inoculated nutrient agar were then poured and allowed to harden.
[…] To minimize possible photocatalyzed reactions of the dyes, all preparations were performed under yellow lights and all incubations were performed in the dark.
Schleider and Schuell #740-E filter paper (12.7 mm diameter) was dipped in the dye solution, touched to the side of the beaker to removed excess dye, and placed in the center of the inoculated agar plates (prepared in (B) above). […] The plates were then examined to determine if bacterial growth had been affected by the dye-containing filter paper. […]
Control plates were prepared in which the filter paper contained methanol or a 0.2 molar aqueous solution of phenol. […]

Bacillus pumilus (K-1) = test system: Bacillus pumilus (K-1)
Description: This can be accomplished by contacting a given concentration of the dye with the cells, removing the cells from the dye solution and then comparing the optical density (at λmax) of the remaining dye solution with a control containing the original concentration of the dye. The percentage decrease in optical density indicates the percentage of dye which has been bound to the cells.
The culture was collected by centrifugation at 5,000×g. for 10 minutes, and the resultant pellet was washed several times in cold 0.05 M potassium phosphate buffer, pH 7.0. The pellet was resuspended in the buffer solution to a final optical density of 1.0 at 620 nm as measured with a Bausch and Lomb Spectronic 20.
One-tenth ml of dye solution (1 mg/ml in methanol) was added to a tube containing 5 ml of cell suspension described above and a control tube containing 0.05 M potassium phosphate buffer, pH 7.0. All tubes were well agitated using a Vari-Whirl Mixer (Will Scientific Co.) and then centrifuged at 10,000×g. for 10 minutes.
The percent binding of dye to the cells for each dye, was determined by comparison of the density at λmax of the control supernatant sample with the density at λmax of the supernatant of the cell sample.

Alcaligenes faecalis = experiment: Inhibition of bacterial growth, filter paper technique; format: cell-based; details: for Area of Inhibition (diameter): Table VIII, 10^-3 molar, Gram -, 37° C./48 hrs
Description: (§1) Schleider and Schuell #740-E filter paper (12.7 mm diameter) was dipped in the dye solution, touched to the side of the beaker to removed excess dye, and placed in the center of the inoculated agar plates (prepared in (B) above). The plates were then incubated at 26° C. for […]. The plates were then examined to determine if bacterial growth had been affected by the dye-containing filter paper. With certain dyes bacterial growth was inhibited in a circular area around the filter paper. With other dyes no such area of inhibition was observed.
(§2) Cultures of various gram-negative and gram-positive bacteria were prepared in nutrient and Tryptic Soy Agar and plates were poured as described in Example 1. Methanolic solutions of cyanine dyes were prepared at 10^-3 molar and applied to the plates using the filter paper technique described in Example 1. Control plates were prepared in which the filter paper contained methanol or a 0.2 molar aqueous solution of phenol. The plates were then incubated at 26° C. or 37° C. for forty-eight hours.

Bacillus cereus = experiment: as above; format: cell-based
Description: as §1, §2

Bacillus megaterium = experiment: as above; format: cell-based; details: Table VIII, Tryptic Soy, 37° C./48 hrs; for zone of inhibition at 1000 µM: Priestia megaterium, read-out: Area of Inhibition (diameter)
Description: as §1, §2

Bacillus subtilis = experiment: as above; format: cell-based; details: for zone of inhibition at 1000 µM: Table VIII, 10^-3 molar, Gram +, 26° C./48 hrs, read-out: Area of Inhibition (diameter)
Description: as §1, §2

Enterobacter aerogenes = experiment: as above; format: cell-based; details: Table VIII, 37° C./48 hrs; for Area of Inhibition (diameter): 10^-3 molar, Gram -
Description: as §1, §2

[2] = test system: Escherichia coli, Strain B; experiment: as above; format: cell-based; details: Table VIII, 37° C./48 hrs; for Area of Inhibition (diameter): 10^-3 molar, Gram -
Description: as §1, §2

Micrococcus flavus = experiment: as above; format: cell-based
Description: as §1, §2

Micrococus luteus = experiment: as above; format: cell-based; details: for zone of inhibition at 1000 µM: read-out: Area of Inhibition (diameter)
Description: as §1, §2

Proteus vulgaris = experiment: as above; format: cell-based; details: Table VIII, 37° C./48 hrs; for Area of Inhibition (diameter): 10^-3 molar, Gram -
Description: as §1, §2

[3] = not told
Description: If a published reduction potential is not available, suitable techniques for measuring reduction potential are available and can be used. […] This technique involves measurement at 20° C., of an approximately 10^-4 molar solution of the dye in an electrolyte, such as methanol which is 0.05 molar in lithium chloride, using a dropping mercury electrode. The potential values are reported by reference to a silver-silver chloride electrode in a saturated solution of potassium chloride at 20° C.

[4] = Oxidation potential (Eox) of the dye; format: physicochemical; details: Tables I, II, V, VI
Sea Urchin Eggs = experiment: Inhibition of cell division in fertilized sea urchin eggs; format: cell-based; details: arbitrary scale 0 to 5, 5 most active; dye 10^-5 to 10^-6 molar, 60 minutes after fertilization
Description: To suspensions in filtered sea water of fertilized sea urchin eggs there was added, three minutes after fertilization, methanolic solutions of the dyes in an amount sufficient to yield a final concentration of dye of between 10^-5 and 10^-6 molar. The final concentration of methanol was, at a maximum 1×10^-4 molar. The eggs were visually observed at 60 minutes after fertilization to determine if cell division and the formation of mitotic apparatus had been inhibited. A rating was assigned based on the concentration of dye required to inhibit cell division and synthesis of DNA.

[5] = Bacillus pumilus, K1, 48 h, Table VIII, 10^-3 molar, Nutrient, 37° C./48 hrs, read-out: Area of Inhibition (diameter)
[6] = Bacillus pumilus, K1, Table IX, 10^-3 M, read-out: Diameter of Inhibition
[7] = Table VIII, 10^-3 molar, Gram +, 26° C./48 hrs
[8] = Table II, 10^-4 molar, 26° C., forty-eight hours
[9] = Bacillus pumilus, K1, read-out: Diameter of Inhibition
[10] = 48 h, read-out: Area of Inhibition (diameter), control

SMILES | % Bound (Bacillus pumilus (K-1)) | ER [3] | reduction potential (ER) [3] | Eox [4] | Activity Rating [1] | zone of inhibition at 1000 µM [1, 5] | zone of inhibition at 1000 µM [1, 6] | Area of Inhibition (diameter) (Alcaligenes faecalis) | zone of inhibition at 1000 µM (Bacillus megaterium; 10^-3 molar, Gram +) | zone of inhibition at 1000 µM (Bacillus subtilis) | Area of Inhibition (diameter) (Enterobacter aerogenes) | Area of Inhibition (diameter) [2] | zone of inhibition at 1000 µM (Micrococus luteus; [7]) | Area of Inhibition (diameter) (Proteus vulgaris) | Diameter of Inhibition [1, 8] | Diameter of Inhibition ([1]; Table IX, 10^-4 M) | Area of Inhibition (diameter) (Bacillus cereus; [7]) | Area of Inhibition (diameter) (Micrococcus flavus; [7]) | Sea Urchin Eggs Activity (Sea Urchin Eggs) | further results
CCN1C(=CC=CC=Cc2oc3ccccc3[n+]2CC)Oc2ccccc21 [Dye 21] | 99.4% | -.83 | -0.83 volts | – | 66 | 21 mm | 21 mm | No | 18 mm | 16 mm | No | No | 14 mm | No | – | – | – | – | – | zone of inhibition at 1000 µM (Bacillus cereus; Bacillus cereus, Table VIII, 10^-3 molar, Gram +, 26° C./48 hrs, read-out: Area of Inhibition (diameter)): 14 mm; zone of inhibition at 1000 µM (Micrococcus flavus; Micrococcus flavus, Table VIII, 10^-3 molar, Gram +, 26° C./48 hrs, read-out: Area of Inhibition (diameter)): 18 mm
Oc1ccccc1 [Phenol, reference compound] | – | – | – | – | – | – | – | – | – | – | – | – | – | – | – | – | – | – | – | zone of inhibition at 200000 µM ([1]; Bacillus pumilus, K1, 48 h, read-out: Area of Inhibition (diameter), control): 22 mm; zone of inhibition at 53000 µM [1, 9]: 18 mm; zone of inhibition at 106000 µM [1, 9]: 22 mm; zone of inhibition at 213000 µM [1, 9]: 26 mm; zone of inhibition at 200000 µM (Alcaligenes faecalis; Alcaligenes faecalis, 48 h, read-out: Area of Inhibition (diameter), control): 15 mm; zone of inhibition at 200000 µM (Bacillus cereus; Bacillus cereus, 48 h, read-out: Area of Inhibition (diameter), control): 14 mm; Area of Inhibition (diameter), control (Bacillus megaterium; 0.2 M phenol): Slight; zone of inhibition at 200000 µM (Bacillus subtilis; [10]): 13 mm; Area of Inhibition (diameter), control (Enterobacter aerogenes; 0.2 M phenol): No; Area of Inhibition (diameter), control ([2]; 0.2 M phenol): No; zone of inhibition at 200000 µM (Micrococcus flavus; Micrococcus flavus, 48 h, read-out: Area of Inhibition (diameter), control): 16 mm; zone of inhibition at 200000 µM (Micrococus luteus; [10]): 15 mm; Area of Inhibition (diameter), control (Proteus vulgaris; 0.2 M phenol): No
CCN1C(=Cc2oc3ccccc3[n+]2CC)Oc2ccccc21 [Dye 1] | 33.6% | -1.69 | -1.69 volts | – | 39 | 18 mm | 18 mm | No | 17 mm | 13 mm | No | No | 22 mm | No | – | – | No | No | – | –

Continued, in another order:

% Bound (Bacillus pumilus (K-1)) | ER [3] | reduction potential (ER) [3] | Eox [4] | SMILES | Activity Rating [1] | zone of inhibition at 1000 µM [1, 5] | zone of inhibition at 1000 µM [1, 6] | Area of Inhibition (diameter) (Alcaligenes faecalis) | zone of inhibition at 1000 µM (Bacillus megaterium; 10^-3 molar, Gram +) | zone of inhibition at 1000 µM (Bacillus subtilis) | Area of Inhibition (diameter) (Enterobacter aerogenes) | Area of Inhibition (diameter) [2] | zone of inhibition at 1000 µM (Micrococus luteus; [7]) | Area of Inhibition (diameter) (Proteus vulgaris) | Diameter of Inhibition [1, 8] | Diameter of Inhibition ([1]; Table IX, 10^-4 M) | Area of Inhibition (diameter) (Bacillus cereus; [7]) | Area of Inhibition (diameter) (Micrococcus flavus; [7]) | Sea Urchin Eggs Activity (Sea Urchin Eggs) | further results
83.7% | – | -0.20 volts | > +1.00 | Cn1c(-c2ccccc2)c(C=CC=C2C(c3ccccc3)=[N+](C)c3ccccc32)c2ccccc21 [Dye 33] | 0 | – | – | No | – | 13 mm | No | No | – | No | None | None | No | No | 0 | Diameter of Inhibition ([1]; Table I, 10^-4 molar, 26° C., fifty hours, dark): None; Diameter of Inhibition ([1]; Table IX, 10^-3 M): None; Area of Inhibition (diameter) ([1]; Table VIII, 10^-3 molar, Nutrient, 37° C./48 hrs): No; Area of Inhibition (diameter) (Bacillus megaterium; 10^-3 molar, Gram +): No; Area of Inhibition (diameter) (Micrococus luteus; [7]): Slight
61.0% | – | -0.32 volts | > +1.00 | CC[n+]1c(C=Cc2c(-c3cccnc3)n(C)c3ccccc23)sc2cc([N+](=O)[O-])ccc21 [Dye 32] | 0 | – | – | – | – | – | – | – | – | – | None | None | – | – | +2 | –
